Assay results: PubChem BioAssay AID1963975 (Molecular Pharmacology Branch, DTP, NCI, 2024)

Test system: 624824-186-R-J2-PDC multicell spheroids, viability
Test: Anticancer human tumor 624824-186-R-J2-PDC patient-derived colon adenocarcinoma cell line growth inhibition [PI3K]
Details: for IC50: curve of first compound; for viability, T/C: stronger effect = lower value
Text: Combinatorial screen of targeted agents with the PI3K inhibitors inavolisib, alpelisib, duvelisib, and copanlisib in multi-cell type tumor spheroids
A high-throughput screen of multi-cell type tumor spheroids was designed to identify active combinations of targeted small molecules and PI3K pathway inhibitors. Complex spheroids include a stromal component modeled by human endothelial cells (HUVEC) and fibroblasts modeled by human mesenchymal stem cells (MSCs). The concentration ranges selected for each drug and investigational agent were based upon clinically achievable concentrations if the clinical Cmax of the agent was known.
Compounds. The drugs and investigational agents: inavolisib (NSC800729), alpelisib (NSC765974), duvelisib (NSC772469), copanlisib (NSC816437), ipatasertib (NSC767898), afuresertib (NSC778305), talazoparib (NSC767125), sapanisertib (NSC764658), selumetinib (NSC741078), tovorafenib (DAY101, NSC766906), vemurafenib (NSC761431), ravoxertinib (NSC781343), sotorasib (NSC818433), MRTX1133 (NSC 836407), abemaciclib (NSC 768073), palbociclib (NSC758247), venetoclax (NSC 766270), SY5609 (NSC837396), enzalutamide (NSC755605), and darolutamide (NSC825331), were obtained from the National Cancer Institute (NCI) Developmental Therapeutics Program Chemical Repository. The FDA-approved anticancer drug set is available from the NCI Developmental Therapeutics Program. […] The stock solutions were prepared in dimethyl sulfoxide (DMSO, Sigma-Aldrich, St. Louis, MO, cat. D2650) at 800-fold the tested concentration and stored at -70 degrees C prior to their use. All drugs and investigational agents were tested over a range starting from a high concentration at or near the clinical Cmax and decreasing in half-log increments. If the clinical Cmax for an agent had not been determined, the highest concentration tested was 10 microM.
Cell Culture. All cells were maintained in an incubator at 37 degrees C and 5% CO2 with 95% humidity. The PDC lines were cultured according to standard operating procedures established by the NCI PDMR (https://pdmr.cancer.gov/sops/default.htm). All PDCs were thawed and cultured in Matrigel-coated flasks prepared with a working solution of 1X Ham's F-12 nutrient mix, without supplementation (Invitrogen, Waltham, MA, cat. 11765054), 100 U/mL penicillin-streptomycin (Invitrogen, cat. 15140122), and 2.5% Matrigel (Corning Inc., Corning, NY, cat. 354248) for the first three passages. The 354836-022-R-J1-PDC, 475296-252-R-J1-PDC, and 997726-040-R-J2-PDC lines were cultured in 6A media, which includes advanced DMEM/F-12 (Thermo Fisher Scientific, cat. 12634028), 10 mM HEPES (Thermo Fisher Scientific, cat. 15630080), 1X GlutaMAX supplement (Thermo Fisher Scientific, cat. 35050061), 0.1 mg/mL primocin (InvivoGen, San Diego, CA, cat. ant-pm-2), 10% defined fetal bovine serum, heat inactivated (HyClone Laboratories Inc., Logan, UT, cat. SH30070.03HI), 50% L-WRN conditioned media (ATCC, cat. CRL-3276), 1.25 mM N-Acetyl-L-cysteine (Sigma-Aldrich, cat. A9165), 10 mM nicotinamide (Sigma-Aldrich, cat. N0636), 1X B-27 supplement (Thermo Fisher Scientific, cat. 17504044), 1X N-2 supplement (Thermo Fisher Scientific, cat. 17502048), and 10 microM Y-27632 dihydrochloride (Tocris Bioscience, Bristol, United Kingdom, cat. 1254). The 624824-186-R-J2-PDC line was cultured in 6C/Colon 1B media, which includes all 6A media components plus 50 ng/mL human EGF recombinant protein (Thermo Fisher Scientific, cat. PHG0311). […]

[1] = second compound 0.0316 µM, first compound 0.0316 µM
[2] = second compound 0.0316 µM, first compound 0.1 µM
[3] = second compound 0.0316 µM, first compound 0.316 µM
[4] = second compound 0.0316 µM, first compound 1 µM
[5] = second compound 0.0316 µM, first compound 3.16 µM
[6] = second compound 0.0316 µM, first compound 10 µM
[7] = second compound 0.1 µM, first compound 0.0316 µM
[8] = second compound 0.1 µM, first compound 0.1 µM
[9] = second compound 0.1 µM, first compound 0.316 µM
[10] = second compound 0.1 µM, first compound 1 µM
[11] = second compound 0.1 µM, first compound 3.16 µM
[12] = second compound 0.1 µM, first compound 10 µM
[13] = second compound 0.316 µM, first compound 0.0316 µM
[14] = second compound 0.316 µM, first compound 0.1 µM
[15] = second compound 0.316 µM, first compound 0.316 µM
[16] = second compound 0.316 µM, first compound 1 µM
[17] = second compound 0.316 µM, first compound 3.16 µM
[18] = second compound 0.316 µM, first compound 10 µM
[19] = second compound 1 µM, first compound 0.0316 µM
[20] = second compound 1 µM, first compound 0.1 µM
[21] = second compound 1 µM, first compound 0.316 µM
[22] = second compound 1 µM, first compound 1 µM
[23] = second compound 1 µM, first compound 3.16 µM
[24] = second compound 1 µM, first compound 10 µM
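Note: spheroids exposed to agents for 7 days before viability read.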
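Throughout, for viability, T/C: 100% = DMSO vehicle treated spheroids.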

Question: What does the source list for CNC(=O)c1ccc(N2C(=S)N(c3ccc(C#N)c(C(F)(F)F)c3)C(=O)C2(C)C)cc1F + CC(Nc1ccc2c(c1)OCCn1cc(N3C(=O)OCC3C(F)F)nc1-2)C(N)=O?
Answer: IC50 (second compound 0.00316 µM): > 10 µM; IC50 (second compound 0.01 µM): > 10 µM; IC50 (second compound 0.0316 µM): > 10 µM; IC50 (second compound 0.1 µM): > 10 µM; IC50 (second compound 0.316 µM): > 10 µM; IC50 (second compound 1 µM): > 10 µM; viability, T/C (second compound 0.00316 µM, first compound 0.0316 µM): 90.2%; viability, T/C (second compound 0.00316 µM, first compound 0.1 µM): 90.7%; viability, T/C (second compound 0.00316 µM, first compound 0.316 µM): 107%; viability, T/C (second compound 0.00316 µM, first compound 1 µM): 96.3%; viability, T/C (second compound 0.00316 µM, first compound 3.16 µM): 134%; viability, T/C (second compound 0.00316 µM, first compound 10 µM): 121%; viability, T/C (second compound 0.01 µM, first compound 0.0316 µM): 88.3%; viability, T/C (second compound 0.01 µM, first compound 0.1 µM): 107%; viability, T/C (second compound 0.01 µM, first compound 0.316 µM): 88.5%; viability, T/C (second compound 0.01 µM, first compound 1 µM): 86.4%; viability, T/C (second compound 0.01 µM, first compound 3.16 µM): 124%; viability, T/C (second compound 0.01 µM, first compound 10 µM): 109%; viability, T/C [1]: 75.5%; viability, T/C [2]: 77.3%; viability, T/C [3]: 89.5%; viability, T/C [4]: 80.5%; viability, T/C [5]: 102%; viability, T/C [6]: 98.3%; viability, T/C [7]: 72.3%; viability, T/C [8]: 66%; viability, T/C [9]: 84.8%; viability, T/C [10]: 67.8%; viability, T/C [11]: 78%; viability, T/C [12]: 102%; viability, T/C [13]: 78%; viability, T/C [14]: 72.3%; viability, T/C [15]: 88.5%; viability, T/C [16]: 76.9%; viability, T/C [17]: 104%; viability, T/C [18]: 98.7%; viability, T/C [19]: 69%; viability, T/C [20]: 78%; viability, T/C [21]: 89.3%; viability, T/C [22]: 87.5%; viability, T/C [23]: 95.2%; viability, T/C [24]: 93.7%

Question: For CC(C)NCC(C(=O)N1CCN(c2ncnc3c2C(C)CC3O)CC1)c1ccc(Cl)cc1 (centres undefined) + Cc1nc(NC(=O)N2CCCC2C(N)=O)sc1-c1ccnc(C(C)(C)C(F)(F)F)c1, which IC50 (second compound 0.0316 µM) is on record?
Answer: > 10 µM

Question: And the IC50 (second compound 0.1 µM)?
Answer: > 10 µM

Question: What about the IC50 (second compound 0.316 µM) of the same compound?
Answer: > 10 µM

Question: And the IC50 (second compound 1 µM)?
Answer: > 10 µM

Question: What about the IC50 (second compound 3.16 µM) of the same compound?
Answer: > 10 µM

Question: What about the IC50 (second compound 10 µM) of the same compound?
Answer: > 10 µM

Question: And the viability, T/C [1]?
Answer: 88.1%

Question: And the viability, T/C [2]?
Answer: 106%

Question: And the viability, T/C [3]?
Answer: 72.2%

Question: And the viability, T/C [4]?
Answer: 85%

Question: What about the viability, T/C [5] of the same compound?
Answer: 93.3%

Question: What about the viability, T/C [6] of the same compound?
Answer: 68.2%

Question: What about the viability, T/C [7] of the same compound?
Answer: 79.3%

Question: And the viability, T/C [8]?
Answer: 72.6%

Question: And the viability, T/C [9]?
Answer: 85%

Question: What about the viability, T/C [10] of the same compound?
Answer: 68.1%

Question: What about the viability, T/C [11] of the same compound?
Answer: 76.5%

Question: What about the viability, T/C [12] of the same compound?
Answer: 74.4%

Question: What about the viability, T/C [13] of the same compound?
Answer: 78.2%

Question: What about the viability, T/C [14] of the same compound?
Answer: 68.2%

Question: And the viability, T/C [15]?
Answer: 77.5%

Question: And the viability, T/C [16]?
Answer: 75.3%

Question: What about the viability, T/C [17] of the same compound?
Answer: 79.6%

Question: And the viability, T/C [18]?
Answer: 64.9%

Question: And the viability, T/C [19]?
Answer: 64.5%

Question: And the viability, T/C [20]?
Answer: 85.9%

Question: And the viability, T/C [21]?
Answer: 63.4%

Question: What about the viability, T/C [22] of the same compound?
Answer: 86.4%

Question: And the viability, T/C [23]?
Answer: 76.5%

Question: What about the viability, T/C [24] of the same compound?
Answer: 75.4%

Question: And the viability, T/C (second compound 3.16 µM, first compound 0.0316 µM)?
Answer: 78.2%

Question: What about the viability, T/C (second compound 3.16 µM, first compound 0.1 µM) of the same compound?
Answer: 79.8%

Question: What about the viability, T/C (second compound 3.16 µM, first compound 0.316 µM) of the same compound?
Answer: 81.3%

Question: And the viability, T/C (second compound 3.16 µM, first compound 1 µM)?
Answer: 82.2%

Question: And the viability, T/C (second compound 3.16 µM, first compound 3.16 µM)?
Answer: 68%

Question: And the viability, T/C (second compound 3.16 µM, first compound 10 µM)?
Answer: 55.9%

Question: What about the viability, T/C (second compound 10 µM, first compound 0.0316 µM) of the same compound?
Answer: 73.5%

Question: What about the viability, T/C (second compound 10 µM, first compound 0.1 µM) of the same compound?
Answer: 66.6%

Question: And the viability, T/C (second compound 10 µM, first compound 0.316 µM)?
Answer: 58.1%

Question: What about the viability, T/C (second compound 10 µM, first compound 1 µM) of the same compound?
Answer: 62.5%

Question: And the viability, T/C (second compound 10 µM, first compound 3.16 µM)?
Answer: 63.7%

Question: And the viability, T/C (second compound 10 µM, first compound 10 µM)?
Answer: 55.8%
